One test concerns the target T1, Stat5 (Homo sapiens, UniProt P42229).
T1 construct: endogenous in cells; host or cells: CWR22Rv1
Kind of test: Prolactin-induced Stat5 phosphorylation in CWR22Rv1 cells (immunoprecipitation/Western blot). It counts as cell-based. The settings on record: CWR22Rv1 cells, 25, 50 and 100 μM for 2 h, 10 nM Prl 30 minutes. The protocol: (§1) CWR22Rv1 cells were starved for 24 h in serum-free medium, treated N6BAP at 25, 50 and 100 μM concentrations for 2 h, followed by stimulation with 10 nM Prl for 30 minutes. Stat5a and Jak2 were immunoprecipitated with anti-Stat5a or anti-Jak2 pAbs. Immunoprecipitates of CWR22Rv1 cells were blotted with anti-PYStat5, anti-Stat5a/b mAb or anti-PY mAb (for Jak2). Whole cell lysates were immunoblotted with anti-actin pAb for loading control. Because SH2-domain of Stat5 mediates the recruitment of Stat5 to the Prl-receptor-Jak2-complex and Stat5 phosphorylation, N6BAP inhibits Prl-induced phosphorylation of Stat5.
(§2) The protocol in more detail comprised the following. Cell pellets were solubilized in lysis buffer [10 mM Tris-HCl (pH 7.6), 5 mM EDTA, 50 mM sodium chloride, 30 mM sodium pyrophosphate, 50 mM sodium fluoride, 1 mM sodium orthovanadate, 1% Triton X-100, 1 mM phenylmethylsulfonyl fluoride, 5 μg/mlaprotinin, 1 μg/ml pepstatin A, and 2 μg/ml leupeptin], rotated end-over-end at 4° C. for 60 min, and insoluble material was pelleted at 12,000×g for 30 min at 4° C. The protein concentrations of clarified cell lysates were determined by simplified Bradford method (Bio-Rad Laboratories, Hercules, Calif.). Stat5a, Stat5b and Jak2 were immunoprecipitated from whole cell lysates with anti-Stat5a, anti-Stat5b (4 μl/ml; Millipore, Billerica, Mass.) or anti-Jak2 (Millipore) pAbs. […]
(In general: Immunoblotting shows a protein as a band on a membrane.)

Another test deals with T2, Jak2 (Homo sapiens, UniProt O60674).
T2 construct: endogenous in cells; host or cells: CWR22Rv1
Kind of test: Jak2 phosphorylation in CWR22Rv1 cells (immunoprecipitation/Western blot). It counts as cell-based. The settings on record: CWR22Rv1 cells, 25, 50 and 100 μM for 2 h, 10 nM Prl 30 minutes. As to the method:
as §1, §2

The next test has as its system cyclin D1. Kind of test: Expression of Stat5 target gene cyclin D1 in CWR22Rv1 and LNCaP cells (immunoblot). The class given is cell-based, human. The settings on record: 48 h or 25 μM over time. The protocol:
Exponentially growing CWR22Rv1 and LNCaP cells were treated with N6BAP or the control compound C5 (Ctrl) for 48 h at concentrations indicated in FIG. 6 and whole cell lysates were immunoblotted with anti-cyclinD1 mAb. Exponentially growing CWR22Rv1 and LNCaP cells were treated with N6BAP or control compound C5 (Ctrl) at 25 μM for the periods of time indicated in FIG. 6, and whole cell lysates were immunoblotted with anti-cyclinD1 mAb or anti-Bcl-X1 pAb. Cell pellets were solubilized in lysis buffer [10 mM Tris-HCl (pH 7.6), 5 mM EDTA, 50 mM sodium chloride, 30 mM sodium pyrophosphate, 50 mM sodium fluoride, 1 mM sodium orthovanadate, 1% Triton X-100, 1 mM phenylmethylsulfonyl fluoride, 5 μg/ml aprotinin, 1 μg/ml pepstatin A, and […]], rotated end-over-end at 4° C. for 60 min, and insoluble material was pelleted at 12,000×g for 30 min at 4° C. The protein concentrations of clarified cell lysates were determined by simplified Bradford method (Bio-Rad Laboratories, Hercules, Calif.). The following primary antibodies were used for Western blotting, at the following concentrations: anti-β-actin pAb (1:4,000; Sigma), anti-cyclin D1 mAb (1:1000, BD Biosciences) and Bcl-xL pAb (1:1000, Cell Signaling, Danvers, Mass.).

A further test concerns the target Stat3 (Homo sapiens, UniProt P40763). Kind of test: IL-6-induced Stat3 transcriptional activity, luciferase reporter in LNCaP cells. The class given is cell-based. The settings on record: 6.0 μM for 2 h, 50 ng/ml IL-6 for 16 h. The protocol: LNCaP prostate cancer cells were transiently co-transfected with pStat3, pIL-6-receptor (pIL-6R), pStat3-Luc and pRL-TK (Renilla luciferase). The cells were serum-starved for 20 h, pre-treated with N6BAP or the control compound C5 (Ctrl) at 6.0 μM for 2 h followed by stimulation with 50 ng/ml of IL-6 for 16 h. The relative luciferase activities were determined. S.E. values are indicated by bars.
A general note: A reporter such as luciferase makes a cellular process visible.

The next test relates to Stat5a/b. Kind of test: Nuclear Stat5a/b immunostaining in CWR22Rv1 xenograft tumors. The class given is in vivo, nude mice. As to conditions: CWR22Rv1 xenograft tumors of Example 10. As to the method:
Nuclear active Stat5a/b or nuclear active Stat3 were analyzed by immunostaining with an anti-Stat5a/b or anti-Stat3 antibody, respectively, and biotin-streptavidin amplified peroxidase antiperoxidase immunodetection of paraffin-embedded sections of the prostate xenograft tumors of Example 10. Anti-Stat5a/b (mAb) (55 ng/ml) (Santa Cruz Biotechnology) was used as the primary antibody and antigen-antibody complexes were detected by appropriate biotinylated goat secondary antibodies (Biogenex Laboratories) followed by streptavidin-horseradish-peroxidase complex, and 3,3′-diaminobenzidine as chromogen and Mayer hematoxylin as counterstain. Three microscopic views of each tumor (ten tumors per each treatment group) were photographed at 20× magnification. Nuclear Stat5 and Stat3 indexes were determined by counting epithelial cells with nuclear Stat5a/b immunostaining-positive cells per total number of epithelial cells per view. The counts were averaged within the tumors in a given treatment group.

Stat3, sequence (P40763 whole entry, species assumed): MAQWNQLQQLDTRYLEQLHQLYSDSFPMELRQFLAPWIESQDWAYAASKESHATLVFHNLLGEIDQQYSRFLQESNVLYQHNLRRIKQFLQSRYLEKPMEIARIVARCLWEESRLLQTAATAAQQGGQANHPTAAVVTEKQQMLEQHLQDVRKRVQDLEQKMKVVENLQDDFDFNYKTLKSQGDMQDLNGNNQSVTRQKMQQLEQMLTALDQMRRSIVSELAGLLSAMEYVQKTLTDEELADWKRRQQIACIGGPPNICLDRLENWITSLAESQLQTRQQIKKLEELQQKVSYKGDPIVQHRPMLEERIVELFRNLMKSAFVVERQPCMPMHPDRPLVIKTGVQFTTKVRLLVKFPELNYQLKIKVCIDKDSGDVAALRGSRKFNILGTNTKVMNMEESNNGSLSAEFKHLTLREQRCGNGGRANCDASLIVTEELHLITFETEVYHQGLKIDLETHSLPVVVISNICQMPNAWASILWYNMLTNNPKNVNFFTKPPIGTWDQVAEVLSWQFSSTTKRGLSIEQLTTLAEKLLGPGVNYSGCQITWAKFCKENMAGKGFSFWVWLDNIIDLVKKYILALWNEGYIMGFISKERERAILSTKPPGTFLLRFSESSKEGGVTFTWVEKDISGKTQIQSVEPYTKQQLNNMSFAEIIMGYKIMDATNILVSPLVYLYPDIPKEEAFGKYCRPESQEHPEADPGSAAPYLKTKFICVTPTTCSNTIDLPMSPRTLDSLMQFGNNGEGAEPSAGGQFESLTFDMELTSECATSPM
T1 sequence (P42229 whole entry): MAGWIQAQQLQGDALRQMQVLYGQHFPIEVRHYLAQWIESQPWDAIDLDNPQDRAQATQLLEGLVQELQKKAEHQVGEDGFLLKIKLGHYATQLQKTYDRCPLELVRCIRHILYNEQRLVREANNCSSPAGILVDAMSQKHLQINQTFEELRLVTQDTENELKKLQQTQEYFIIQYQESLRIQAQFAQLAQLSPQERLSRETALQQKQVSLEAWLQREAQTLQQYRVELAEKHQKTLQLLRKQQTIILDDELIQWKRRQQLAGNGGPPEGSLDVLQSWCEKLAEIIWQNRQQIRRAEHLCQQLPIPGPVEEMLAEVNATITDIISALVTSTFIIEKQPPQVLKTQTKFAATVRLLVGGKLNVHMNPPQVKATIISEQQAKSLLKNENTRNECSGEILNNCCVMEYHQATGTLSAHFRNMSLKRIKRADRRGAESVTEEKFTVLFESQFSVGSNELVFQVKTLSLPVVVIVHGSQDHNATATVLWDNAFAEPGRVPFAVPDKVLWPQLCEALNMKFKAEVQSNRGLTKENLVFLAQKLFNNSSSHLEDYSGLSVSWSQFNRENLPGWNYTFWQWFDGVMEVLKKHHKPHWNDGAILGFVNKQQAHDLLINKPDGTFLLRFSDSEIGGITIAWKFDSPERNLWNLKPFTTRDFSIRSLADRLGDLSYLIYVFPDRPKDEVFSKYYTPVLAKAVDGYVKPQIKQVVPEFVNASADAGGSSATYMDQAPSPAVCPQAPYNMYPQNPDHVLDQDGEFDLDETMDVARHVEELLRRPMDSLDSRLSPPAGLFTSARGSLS
T2 sequence (O60674 whole entry): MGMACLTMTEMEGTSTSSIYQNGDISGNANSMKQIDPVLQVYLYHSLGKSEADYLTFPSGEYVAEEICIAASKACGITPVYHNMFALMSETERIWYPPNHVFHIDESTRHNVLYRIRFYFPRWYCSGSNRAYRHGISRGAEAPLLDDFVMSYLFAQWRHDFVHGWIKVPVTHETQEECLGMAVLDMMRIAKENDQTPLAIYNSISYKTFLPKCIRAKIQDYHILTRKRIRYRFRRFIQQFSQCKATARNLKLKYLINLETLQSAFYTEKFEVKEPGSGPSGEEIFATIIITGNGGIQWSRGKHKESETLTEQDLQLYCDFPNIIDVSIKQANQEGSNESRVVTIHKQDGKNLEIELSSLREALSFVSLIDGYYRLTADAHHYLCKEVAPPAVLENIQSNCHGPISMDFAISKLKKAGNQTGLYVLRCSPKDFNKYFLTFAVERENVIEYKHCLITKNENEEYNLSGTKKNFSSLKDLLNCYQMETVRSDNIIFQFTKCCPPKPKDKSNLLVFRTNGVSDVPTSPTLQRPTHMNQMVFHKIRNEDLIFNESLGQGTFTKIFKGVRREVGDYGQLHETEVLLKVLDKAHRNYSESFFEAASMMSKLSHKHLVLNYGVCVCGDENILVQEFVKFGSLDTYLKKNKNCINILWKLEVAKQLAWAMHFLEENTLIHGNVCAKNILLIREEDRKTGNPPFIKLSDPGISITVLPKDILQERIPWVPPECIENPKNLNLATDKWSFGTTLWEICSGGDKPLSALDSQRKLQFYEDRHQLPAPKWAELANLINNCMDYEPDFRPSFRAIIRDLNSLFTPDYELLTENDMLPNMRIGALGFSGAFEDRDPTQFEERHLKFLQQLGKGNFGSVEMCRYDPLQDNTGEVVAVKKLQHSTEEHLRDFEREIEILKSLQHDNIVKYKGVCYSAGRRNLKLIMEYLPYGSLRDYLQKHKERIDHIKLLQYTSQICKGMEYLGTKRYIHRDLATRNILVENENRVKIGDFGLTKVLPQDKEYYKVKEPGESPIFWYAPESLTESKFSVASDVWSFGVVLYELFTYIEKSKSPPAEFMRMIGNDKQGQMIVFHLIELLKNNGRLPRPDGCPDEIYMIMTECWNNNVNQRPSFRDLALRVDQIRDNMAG

Take `O=P(O)(O)OC[C@H]1O[C@@H](n2cnc3c(NCc4ccccc4)ncnc32)[C@H](O)[C@@H]1O` [N6BAP, N^6-benzyladenosine-5′-monophosphate]: the “Prl-induced phosphorylation of Stat5” value on Stat5 is on record as “inhibits Stat5 phosphorylation”. For the same compound, at Jak2, the “phosphorylation of Jak2” value is recorded as “does not affect phosphorylation of Jak2”. The “expression of cyclin D1” value with cyclin D1 is “down-regulates expression”. In addition, the “transcriptional activity of Stat3” value at Stat3 was “does not inhibit the transcriptional activity of Stat3”. Besides, in the test on Stat5a/b, the “nuclear Stat5a/b expression in xenograft tumors” value is recorded as “inhibits nuclear Stat5a/b expression”.

(Values after patent US20160038526A1, “TREATMENT OF PROSTATE CANCER” (THOMAS JEFFERSON UNIVERSITY, priority 2012, published 2016).)
